Reference: paper PMC6121469 (International Journal of Molecular Sciences, 2018)

Experiments:
[1] = target: T1, TASK-3 WT channel (Cavia porcellus, UniProt Q9JL58); conditions: +80 mV, HEK-293 cells
[2] = target: TASK-3/2loop2 (cap-less TASK-3 channel) (Cavia porcellus, UniProt Q9JL58); conditions: symmetrical K+ conditions, HEK-293 cells
[3] = target: TASK-3/2loop2/Y205A (Cavia porcellus, UniProt Q9JL58, Y205A, form not given); conditions: HEK-293 cells
[4] = target: Kv2.1 channel (Rattus norvegicus, UniProt P15387); test: cell-based; conditions: HEK293, read-out: inhibition of Kv2.1 currents
[5] = target: TASK-3/2loop2/Y99A (Cavia porcellus, UniProt Q9JL58); conditions: HEK-293 cells
[6] = target: TASK-3/2loop2/Y99A/Y205A (Cavia porcellus, UniProt Q9JL58, Y205A, form not given); conditions: HEK-293 cells; similar to TASK-3 WT
[7] = target: T1, TASK-3 WT channel; test: cell-based

TASK-3/2loop2 (cap-less TASK-3 channel), sequence (Q9JL58 with tags, fused parts or gaps): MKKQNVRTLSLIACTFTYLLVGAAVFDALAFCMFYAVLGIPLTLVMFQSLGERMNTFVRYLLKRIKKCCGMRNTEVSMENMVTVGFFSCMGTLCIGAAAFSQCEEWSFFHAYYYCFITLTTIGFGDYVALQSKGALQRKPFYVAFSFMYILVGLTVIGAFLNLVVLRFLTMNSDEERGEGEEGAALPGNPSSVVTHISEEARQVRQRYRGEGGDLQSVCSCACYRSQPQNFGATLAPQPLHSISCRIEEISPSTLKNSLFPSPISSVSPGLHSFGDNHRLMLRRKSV
TASK-3/2loop2/Y99A, sequence (Q9JL58 with tags, fused parts or gaps): as above
TASK-3/2loop2/Y205A, sequence (Q9JL58 with tags, fused parts or gaps Y205A, form open): as the sequence (Q9JL58 with tags, fused parts or gaps) above, with Y127A counted along it
T1 sequence (Q9JL58 whole entry): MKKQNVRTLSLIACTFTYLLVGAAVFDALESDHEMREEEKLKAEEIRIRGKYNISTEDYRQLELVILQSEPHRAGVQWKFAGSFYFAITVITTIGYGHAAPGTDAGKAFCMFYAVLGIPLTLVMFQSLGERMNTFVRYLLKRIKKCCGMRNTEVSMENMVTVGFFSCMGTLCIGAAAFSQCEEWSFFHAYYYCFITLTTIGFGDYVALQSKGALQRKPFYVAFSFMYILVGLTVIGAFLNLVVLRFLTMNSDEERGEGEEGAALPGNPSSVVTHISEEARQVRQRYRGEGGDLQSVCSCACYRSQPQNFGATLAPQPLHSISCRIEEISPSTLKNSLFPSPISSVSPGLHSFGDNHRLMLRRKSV
TASK-3/2loop2/Y99A/Y205A, sequence (Q9JL58 with tags, fused parts or gaps Y205A, form open): as the sequence (Q9JL58 with tags, fused parts or gaps) above, with Y127A counted along it
Kv2.1 channel, sequence (P15387 whole entry): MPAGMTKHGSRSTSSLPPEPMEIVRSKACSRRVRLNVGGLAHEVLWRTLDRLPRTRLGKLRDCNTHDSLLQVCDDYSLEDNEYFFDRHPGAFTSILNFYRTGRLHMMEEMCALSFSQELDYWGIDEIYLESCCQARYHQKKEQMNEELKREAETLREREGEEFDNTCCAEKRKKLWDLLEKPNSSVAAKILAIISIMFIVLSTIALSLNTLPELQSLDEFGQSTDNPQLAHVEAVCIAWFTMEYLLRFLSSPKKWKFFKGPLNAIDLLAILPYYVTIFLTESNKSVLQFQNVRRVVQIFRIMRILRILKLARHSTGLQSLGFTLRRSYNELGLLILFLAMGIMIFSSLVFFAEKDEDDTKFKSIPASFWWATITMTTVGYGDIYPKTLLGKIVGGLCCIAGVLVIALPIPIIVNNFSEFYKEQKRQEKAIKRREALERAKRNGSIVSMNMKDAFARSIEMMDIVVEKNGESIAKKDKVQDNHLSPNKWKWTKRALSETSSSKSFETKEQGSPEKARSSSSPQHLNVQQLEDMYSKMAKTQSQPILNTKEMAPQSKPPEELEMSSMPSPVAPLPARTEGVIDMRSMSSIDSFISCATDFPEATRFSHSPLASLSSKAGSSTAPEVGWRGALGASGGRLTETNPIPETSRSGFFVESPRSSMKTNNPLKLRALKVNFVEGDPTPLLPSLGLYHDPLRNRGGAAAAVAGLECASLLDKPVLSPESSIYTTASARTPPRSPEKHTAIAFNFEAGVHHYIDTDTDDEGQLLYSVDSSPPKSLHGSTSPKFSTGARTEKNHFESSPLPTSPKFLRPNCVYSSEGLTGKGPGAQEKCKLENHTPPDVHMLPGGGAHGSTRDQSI

Q: Which results are given for `CC[N+](CC)(CC)CC` [TEA, tetraethylammonium]?
A: inhibition at saturating TEA concentrations [1]: 30%; maximum inhibition [2]: 90%; IC50 ([2]; n = 4): 11.8 ± 0.4 mM; maximal inhibition [3]: 59%; IC50 ([3]; n = 3): 63.9 ± 5.4 mM; inhibition at 100000 µM [4]: ~85%; maximal inhibition [5]: 46%; IC50 ([5]; n = 4): 17.3 ± 1.8 mM; sensitivity to TEA blockade [6]: essentially insensitive; IC50 [7]: 12.5 ± 3.4 mM
